The supplement of paper PMC11451515

Key:
Conditions in all cases: 48 h
SEM cells [1] = test: AUC of viability dose-response curve (% viability x log10 dose units); higher = less sensitive
How it was run: (§1)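 Area under the curve was integrated by trapezoidal rule from a log-logistic fit of normalised viability, with curves exceeding full viability scaled and quality-control failures removed. The fit had four parameters over log10 doses. Viability came from CellTiter-Glo One luminescence, normalised per plate to DMSO and cell-free wells, after leukemia cells adapted to each medium (500 or 1000 cells/well, 1536-well plates) were exposed to library compounds in DMSO for 48 h at 37°C. The 11 threefold doses ran from 47 μM to 0.79 nM.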

P12-Ichikawa [2] = test: as above
How it was run: as §1

NOMO1 [3] = test: as above
How it was run: as §1

SEM cells [4] = test: cell viability relative to DMSO control; higher = less cytotoxic
How it was run: (§2)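 Leukemia cells (NOMO1 or SEM, 500 cells/well; P12-Ichikawa, 1000 cells/well) were seeded in 5 μl in 1536-well plates after at least four passages of adaptation to each medium. They received library compounds in DMSO by pin dosing, 11 threefold points from 47 μM to 0.79 nM. Luminescence with CellTiter-Glo One was read after 48 h at 37°C. Viability is stated per plate relative to DMSO wells, with cell-free wells as background.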

P12-Ichikawa [5] = test: as above
How it was run: as §2

NOMO1 [6] = test: as above
How it was run: as §2

CCc1ccc(CCOc2ccc(CC3SC(=O)NC3=O)cc2)nc1 (stereo not drawn)
AUC of viability dose-response curve
Conditions | NOMO1 [3] | P12-Ichikawa [2] | SEM cells [1]
HPLM + 10% dialyzed FBS | 448 | 450 | 444
RPMI 5 mM glucose + 10% FBS | 442 | 473 | 402
RPMI 5 mM glucose + 10% dialyzed FBS | 460 | 469 | 474

cell viability [%]
Conditions | NOMO1 [6] | P12-Ichikawa [5] | SEM cells [4]
HPLM + 10% dialyzed FBS, 0.000781 µM | 125 | 121 | 120
HPLM + 10% dialyzed FBS, 0.00234 µM | 106 | 118 | 115
HPLM + 10% dialyzed FBS, 0.00702 µM | 119 | 123 | 112
HPLM + 10% dialyzed FBS, 0.0211 µM | 134 | 117 | 113
HPLM + 10% dialyzed FBS, 0.0632 µM | 130 | 116 | 124
HPLM + 10% dialyzed FBS, 0.19 µM | 113 | 113 | 108
HPLM + 10% dialyzed FBS, 0.569 µM | 111 | 113 | 42.4
HPLM + 10% dialyzed FBS, 1.71 µM | 112 | 113 | 117
HPLM + 10% dialyzed FBS, 5.12 µM | 96.7 | 108 | 122
HPLM + 10% dialyzed FBS, 15.4 µM | 114 | 108 | 119
HPLM + 10% dialyzed FBS, 46.1 µM | 106 | 108 | 89.6
RPMI 5 mM glucose + 10% FBS, 0.000781 µM | 112 | 118 | 93.5
RPMI 5 mM glucose + 10% FBS, 0.00234 µM | 123 | 112 | 86.9
RPMI 5 mM glucose + 10% FBS, 0.00702 µM | 129 | 118 | 88.1
RPMI 5 mM glucose + 10% FBS, 0.0211 µM | 120 | 115 | 85.9
RPMI 5 mM glucose + 10% FBS, 0.0632 µM | 107 | 117 | 85.6
RPMI 5 mM glucose + 10% FBS, 0.19 µM | 112 | 112 | 83.4
RPMI 5 mM glucose + 10% FBS, 0.569 µM | 99 | 127 | 61
RPMI 5 mM glucose + 10% FBS, 1.71 µM | 121 | 119 | 94.9
RPMI 5 mM glucose + 10% FBS, 5.12 µM | 106 | 109 | 87
RPMI 5 mM glucose + 10% FBS, 15.4 µM | 107 | 118 | 80
RPMI 5 mM glucose + 10% FBS, 46.1 µM | 106 | 119 | 80.7
RPMI 5 mM glucose + 10% dialyzed FBS, 0.000781 µM | – | 123 | 112
RPMI 5 mM glucose + 10% dialyzed FBS, 0.00234 µM | – | 118 | 115
RPMI 5 mM glucose + 10% dialyzed FBS, 0.00702 µM | – | 129 | 111
RPMI 5 mM glucose + 10% dialyzed FBS, 0.0211 µM | – | 120 | 143
RPMI 5 mM glucose + 10% dialyzed FBS, 0.0632 µM | – | 126 | 129
RPMI 5 mM glucose + 10% dialyzed FBS, 0.19 µM | – | 116 | 116
RPMI 5 mM glucose + 10% dialyzed FBS, 0.569 µM | – | 114 | 68.6
RPMI 5 mM glucose + 10% dialyzed FBS, 1.71 µM | – | 121 | 137
RPMI 5 mM glucose + 10% dialyzed FBS, 5.12 µM | – | 120 | 122
RPMI 5 mM glucose + 10% dialyzed FBS, 15.4 µM | – | 111 | 122
RPMI 5 mM glucose + 10% dialyzed FBS, 46.1 µM | – | 100 | 110

NNCCc1ccccc1
AUC of viability dose-response curve
Conditions | NOMO1 [3] | P12-Ichikawa [2] | SEM cells [1]
HPLM + 10% dialyzed FBS | 433 | 465 | 444
RPMI 5 mM glucose + 10% FBS | 450 | 464 | 466
RPMI 5 mM glucose + 10% dialyzed FBS | 467 | 470 | 468

cell viability [%]
Conditions | NOMO1 [6] | P12-Ichikawa [5] | SEM cells [4]
HPLM + 10% dialyzed FBS, 0.000781 µM | 109 | 116 | –
HPLM + 10% dialyzed FBS, 0.00234 µM | 133 | 123 | –
HPLM + 10% dialyzed FBS, 0.00702 µM | 119 | 118 | –
HPLM + 10% dialyzed FBS, 0.0211 µM | 131 | 115 | –
HPLM + 10% dialyzed FBS, 0.0632 µM | 112 | 118 | –
HPLM + 10% dialyzed FBS, 0.19 µM | 115 | 116 | –
HPLM + 10% dialyzed FBS, 0.569 µM | 108 | 115 | –
HPLM + 10% dialyzed FBS, 1.71 µM | 118 | 113 | –
HPLM + 10% dialyzed FBS, 5.12 µM | 111 | 113 | –
HPLM + 10% dialyzed FBS, 15.4 µM | 60 | 106 | –
HPLM + 10% dialyzed FBS, 46.1 µM | 30.4 | 95.3 | –
RPMI 5 mM glucose + 10% FBS, 0.000781 µM | 117 | 120 | –
RPMI 5 mM glucose + 10% FBS, 0.00234 µM | 132 | 115 | –
RPMI 5 mM glucose + 10% FBS, 0.00702 µM | 122 | 120 | –
RPMI 5 mM glucose + 10% FBS, 0.0211 µM | 117 | 117 | –
RPMI 5 mM glucose + 10% FBS, 0.0632 µM | 124 | 110 | –
RPMI 5 mM glucose + 10% FBS, 0.19 µM | 117 | 119 | –
RPMI 5 mM glucose + 10% FBS, 0.569 µM | 115 | 129 | –
RPMI 5 mM glucose + 10% FBS, 1.71 µM | 114 | 128 | –
RPMI 5 mM glucose + 10% FBS, 5.12 µM | 114 | 109 | –
RPMI 5 mM glucose + 10% FBS, 15.4 µM | 103 | 106 | –
RPMI 5 mM glucose + 10% FBS, 46.1 µM | 21.2 | 91.9 | –
RPMI 5 mM glucose + 10% dialyzed FBS, 0.000781 µM | 116 | 109 | 102
RPMI 5 mM glucose + 10% dialyzed FBS, 0.00234 µM | 116 | 116 | 120
RPMI 5 mM glucose + 10% dialyzed FBS, 0.00702 µM | 129 | 116 | 120
RPMI 5 mM glucose + 10% dialyzed FBS, 0.0211 µM | 107 | 110 | 127
RPMI 5 mM glucose + 10% dialyzed FBS, 0.0632 µM | 125 | 123 | 127
RPMI 5 mM glucose + 10% dialyzed FBS, 0.19 µM | 121 | 111 | 112
RPMI 5 mM glucose + 10% dialyzed FBS, 0.569 µM | 122 | 112 | 115
RPMI 5 mM glucose + 10% dialyzed FBS, 1.71 µM | 109 | 116 | 127
RPMI 5 mM glucose + 10% dialyzed FBS, 5.12 µM | 109 | 113 | 103
RPMI 5 mM glucose + 10% dialyzed FBS, 15.4 µM | 114 | 107 | 117
RPMI 5 mM glucose + 10% dialyzed FBS, 46.1 µM | 75 | 96.9 | 75.3
